IC50 data for 2 compounds are collected here from BindingDB's records for doi:10.1016/j.bmcl.2009.05.071 (Astrazeneca, 2009).

The test addresses T1, Procathepsin L [114-333,T223A] (Homo sapiens, UniProt P07711, T223A).
T1 construct: 114-333
Briefly: Cathepsin Inhibition Assay. The note with it: pH 7; 37 °C. On the procedure: IC50 values for inhibition of Cathepsins were determined from dose dependent inhibition of cleavage of fluorogenic, AMC-tagged, peptide substrates.

T1 sequence (P07711 114-333 T223A): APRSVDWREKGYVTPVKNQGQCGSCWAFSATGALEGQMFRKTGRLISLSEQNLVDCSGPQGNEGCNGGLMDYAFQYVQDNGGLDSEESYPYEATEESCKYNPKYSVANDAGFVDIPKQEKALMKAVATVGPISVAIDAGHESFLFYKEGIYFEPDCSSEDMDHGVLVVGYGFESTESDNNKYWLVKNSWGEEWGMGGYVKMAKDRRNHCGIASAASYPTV

The IC50 is the concentration that gives 50% inhibition. A high value points to a need for much substance. As to `N#CCNC(=O)[C@H](Cc1cccc(Cl)c1)NC(=O)c1ccccc1` [Dipeptidyl nitrile inhibitor, 1], half-maximal inhibition (IC50) was put at 251 nM.

The compound `Cn1nc(C(C)(C)C)cc1C(=O)N[C@@H](Cc1cccc(Cl)c1)C(=O)NCC#N` [Dipeptidyl nitrile inhibitor, 25] had a half-inhibitory concentration (IC50) of 13 nM.
